Patent US10807986B2, “Fused pyrimidine compound or salt thereof” (TAIHO PHARMACEUTICAL CO., LTD., priority 2016, dated 2020)

Test: Evaluation of stability in liver microsome
Conditions: mouse liver microsome 0.25 mg/mL, test compound 1 μM, 37° C., 30 minutes

| Remaining (%) | SMILES |
| --- | --- |
| 72% | COCc1ccc(NC(=O)c2c(C#Cc3ccc(Cl)nc3)n(C3(C)CC3)c3ncnc(N)c23)cc1 [Example 120, 4-amino-6-((6-chloropyridin-3-yl)ethynyl)-N-(4-(methoxymethyl)phenyl)-7-(1-methylcyclopropyl)-7H-pyrrolo[2,3-d]pyrimidine-5-carboxamide] |
| 74% | COCc1ccc(NC(=O)c2c(C#Cc3c[nH]c4ccccc34)n(C3(C)CC3)c3ncnc(N)c23)cc1 [Example 121, 6-((1H-indol-3-yl)ethynyl)-4-amino-N-(4-(methoxymethyl)phenyl)-7-(1-methylcyclopropyl)-7H-pyrrolo[2,3-d]pyrimidine-5-carboxamide] |
| 62% | COCc1ccc(NC(=O)c2c(C#Cc3cccc(NCc4ccncc4)c3)n(C3(C)CC3)c3ncnc(N)c23)cc1 [Example 122, 4-amino-N-(4-(methoxymethyl)phenyl)-7-(1-methylcyclopropyl)-6-((3-((pyridin-4-ylmethyl)amino)phenyl)ethynyl)-7H-pyrrolo[2,3-d]pyrimidine-5-carboxamide] |
| 74% | COCc1ccc(NC(=O)c2c(C#CCC3(O)COC3)n(C3(C)CC3)c3ncnc(N)c23)cc1 [Example 125, 4-amino-6-(3-(3-hydroxyoxetan-3-yl)prop-1-yn-1-yl)-N-(4-(methoxymethyl)phenyl)-7-(1-methylcyclopropyl)-7H-pyrrolo[2,3-d]pyrimidine-5-carboxamide] |
| 69% | COCc1ccc(NC(=O)c2c(C#Cc3csc(C)n3)n(C3(C)CC3)c3ncnc(N)c23)cc1 [Example 126, 4-amino-N-(4-(methoxymethyl)phenyl)-7-(1-methylcyclopropyl)-6-((2-methylthiazol-4-yl)ethynyl)-7H-pyrrolo[2,3-d]pyrimidine-5-carboxamide] |
| 70% | CCOc1c(C(=O)Nc2ccc(COC)cc2)c2c(N)ncnc2n1C1(C)CC1 [Example 127, 4-amino-6-ethoxy-N-(4-(methoxymethyl)phenyl)-7-(1-methylcyclopropyl)-7H-pyrrolo[2,3-d]pyrimidine-5-carboxamide] |
| 82% | COCc1ccc(NC(=O)c2c(C#Cc3cnc4[nH]ccc4c3)n(C3(C)CC3)c3ncnc(N)c23)cc1 [Example 128, 6-((1H-pyrrolo[2,3-b]pyridin-5-yl)ethynyl)-4-amino-N-(4-(methoxymethyl)phenyl)-7-(1-methylcyclopropyl)-7H-pyrrolo[2,3-d]pyrimidine-5-carboxamide] |
| 54% | COCc1ccc(NC(=O)c2c(C#Cc3ccn[nH]3)n(C3(C)CC3)c3ncnc(N)c23)cc1 [Example 129, 6-((1H-pyrazol-5-yl)ethynyl)-4-amino-N-(4-(methoxymethyl)phenyl)-7-(1-methylcyclopropyl)-7H-pyrrolo[2,3-d]pyrimidine-5-carboxamide] |
| 84% | COCc1ccc(NC(=O)c2c(C#Cc3cccc(F)c3)n(C3(C)CC3)c3ncnc(N)c23)cc1 [Example 130, 4-amino-6-((3-fluorophenyl)ethynyl)-N-(4-(methoxymethyl)phenyl)-7-(1-methylcyclopropyl)-7H-pyrrolo[2,3-d]pyrimidine-5-carboxamide] |
| 55% | COCc1ccc(NC(=O)c2c(C#CC3(O)CCCC3)n(C3(C)CC3)c3ncnc(N)c23)cc1 [Example 131, 4-amino-6-((1-hydroxycyclopentyl)ethynyl)-N-(4-(methoxymethyl)phenyl)-7-(1-methylcyclopropyl)-7H-pyrrolo[2,3-d]pyrimidine-5-carboxamide] |
| 77% | COCc1ccc(NC(=O)c2c(C#CCN3CCN(C)CC3)n(C3(C)CC3)c3ncnc(N)c23)cc1 [Example 132, 4-amino-N-(4-(methoxymethyl)phenyl)-7-(1-methylcyclopropyl)-6-(3-(4-methylpiperazin-1-yl)prop-1-yn-1-yl)-7H-pyrrolo[2,3-d]pyrimidine-5-carboxamide] |
| 79% | COCc1ccc(NC(=O)c2c(C#CC(C)(C)N)n(C3(C)CC3)c3ncnc(N)c23)cc1 [Example 134, 4-amino-6-(3-amino-3-methylbut-1-yn-1-yl)-N-(4-(methoxymethyl)phenyl)-7-(1-methylcyclopropyl)-7H-pyrrolo[2,3-d]pyrimidine-5-carboxamide] |
| 67% | COCc1ccc(NC(=O)c2c(OCC3CCCO3)n(C3(C)CC3)c3ncnc(N)c23)cc1 (centres unmarked) [Example 135, 4-amino-N-(4-(methoxymethyl)phenyl)-7-(1-methylcyclopropyl)-6-((tetrahydrofuran-2-yl)methoxy)-7H-pyrrolo[2,3-d]pyrimidine-5-carboxamide] |
| 78% | COCc1ccc(NC(=O)c2c(OCCN3CCCC3=O)n(C3(C)CC3)c3ncnc(N)c23)cc1 [Example 136, 4-amino-N-(4-(methoxymethyl)phenyl)-7-(1-methylcyclopropyl)-6-(2-(2-oxopyrrolidin-1-yl)ethoxy)-7H-pyrrolo[2,3-d]pyrimidine-5-carboxamide] |
| 53% | COCc1ccc(NC(=O)c2c(OCC(C)(C)OC)n(C3(C)CC3)c3ncnc(N)c23)cc1 [Example 137, 4-amino-6-(2-methoxy-2-methylpropoxy)-N-(4-(methoxymethyl)phenyl)-7-(1-methylcyclopropyl)-7H-pyrrolo[2,3-d]pyrimidine-5-carboxamide] |
| 52% | COCc1ccc(NC(=O)c2c(OCC3CCCC3)n(C3(C)CC3)c3ncnc(N)c23)cc1 [Example 140, 4-amino-6-(cyclopentylmethoxy)-N-(4-(methoxymethyl)phenyl)-7-(1-methylcyclopropyl)-7H-pyrrolo[2,3-d] pyrimidine-5-carboxamide] |
| 68% | COCc1ccc(NC(=O)c2c(OCC3CCOCC3)n(C3(C)CC3)c3ncnc(N)c23)cc1 [Example 141, 4-amino-N-(4-(methoxymethyl)phenyl)-7-(1-methylcyclopropyl)-6-((tetrahydro-2H-pyran-4-yl)methoxy)-7H-pyrrolo[2,3-d]pyrimidine-5-carboxamide] |
| 68% | COCc1ccc(NC(=O)c2c(C#CCC3(O)CCOCC3)n(C3(C)CC3)c3ncnc(N)c23)cc1 [Example 143, 4-amino-6-(3-(4-hydroxytetrahydro-2H-pyran-4-yl)prop-1-yn-1-yl)-N-(4-(methoxymethyl)phenyl)-7-(1-methylcyclopropyl)-7H-pyrrolo[2,3-d]pyrimidine-5-carboxamide] |
| 79% | COCc1ccc(NC(=O)c2c(C#Cc3cnn(C(C)C)c3)n(C3(C)CC3)c3ncnc(N)c23)cc1 [Example 144, 4-amino-6-((1-isopropyl-1H-pyrazol-4-yl)ethynyl)-N-(4-(methoxymethyl)phenyl)-7-(1-methylcyclopropyl)-7H-pyrrolo[2,3-d]pyrimidine-5-carboxamide] |
| 72% | COCc1ccc(NC(=O)c2c(-c3ccc(CO)cc3)n(C3(C)CC3)c3ncnc(N)c23)cc1 [Example 145, 4-amino-6-(4-(hydroxymethyl)phenyl)-N-(4-(methoxymethyl)phenyl)-7-(1-methylcyclopropyl)-7H-pyrrolo[2,3-d]pyrimidine-5-carboxamide] |
| 68% | COCc1ccc(NC(=O)c2c(-c3ccc(NC(C)=O)nc3)n(C3(C)CC3)c3ncnc(N)c23)cc1 [Example 147, 6-(6-acetamidopyridin-3-yl)-4-amino-N-(4-(methoxymethyl)phenyl)-7-(1-methylcyclopropyl)-7H-pyrrolo[2,3-d]pyrimidine-5-carboxamide] |
| 61% | COCc1ccc(NC(=O)c2c(-c3ccc(O)cc3)n(C3(C)CC3)c3ncnc(N)c23)cc1 [Example 148, 4-amino-6-(4-hydroxyphenyl)-N-(4-(methoxymethyl)phenyl)-7-(1-methylcyclopropyl)-7H-pyrrolo[2,3-d]pyrimidine-5-carboxamide] |
| 62% | C=C(C)c1c(C(=O)Nc2ccc(COC)cc2)c2c(N)ncnc2n1C1(C)CC1 [Example 149, 4-amino-N-(4-(methoxymethyl)phenyl)-7-(1-methylcyclopropyl)-6-(prop-1-en-2-yl)-7H-pyrrolo[2,3-d]pyrimidine-5-carboxamide] |
| 78% | COCc1ccc(NC(=O)c2c(-c3cnn(C)c3)n(C3(C)CC3)c3ncnc(N)c23)cc1 [Example 150, 4-amino-N-(4-(methoxymethyl)phenyl)-6-(1-methyl-1H-pyrazol-4-yl)-7-(1-methylcyclopropyl)-7H-pyrrolo[2,3-d]pyrimidine-5-carboxamide] |
| 57% | COCc1ccc(NC(=O)c2c(C#CCC3CCOCC3)n(C3(C)CC3)c3ncnc(N)c23)cc1 [Example 152, 4-amino-N-(4-(methoxymethyl)phenyl)-7-(1-methylcyclopropyl)-6-(3-(tetrahydro-2H-pyran-4-yl)prop-1-yn-1-yl)-7H-pyrrolo[2,3-d]pyrimidine-5-carboxamide] |
| 50% | COCc1ccc(NC(=O)c2c(-c3ccccc3)n(C3(C)CC3)c3ncnc(N)c23)cc1 [Example 154, 4-amino-N-(4-(methoxymethyl)phenyl)-7-(1-methylcyclopropyl)-6-phenyl-7H-pyrrolo[2,3-d]pyrimidine-5-carboxamide] |
| 64% | COCc1ccc(NC(=O)c2c(C#Cc3ccc(N)nc3)n(C3(C)CC3)c3ncnc(N)c23)cc1 [Example 155, 4-amino-6-((6-aminopyridin-3-yl)ethynyl)-N-(4-(methoxymethyl)phenyl)-7-(1-methylcyclopropyl)-7H-pyrrolo[2,3-d]pyrimidine-5-carboxamide] |
| 67% | COCc1ccc(NC(=O)c2c(C#CCC3NC(=O)NC3=O)n(C3(C)CC3)c3ncnc(N)c23)cc1 (centres unmarked) [Example 156, 4-amino-6-(3-(2,5-dioxoimidazolidin-4-yl)prop-1-yn-1-yl)-N-(4-(methoxymethyl)phenyl)-7-(1-methylcyclopropyl)-7H-pyrrolo[2,3-d]pyrimidine-5-carboxamide] |
| 59% | CCC(O)CC#Cc1c(C(=O)Nc2ccc(COC)cc2)c2c(N)ncnc2n1C1(C)CC1 (centres unmarked) [Example 157, 4-amino-6-(4-hydroxyhex-1-yn-1-yl)-N-(4-(methoxymethyl)phenyl)-7-(1-methylcyclopropyl)-7H-pyrrolo[2,3-d]pyrimidine-5-carboxamide] |
